Values joined by “and” are separate entries in the source; they are usually repeats but may differ in a detail not shown here. Equal values may be shown once. Active and inactive are the calls of the source.
Tests used:
Cytochrome P450 2C19 = Cytochrome P450 2C19 (Homo sapiens, UniProt P33261); assay: Cytochrome panel assay with activity outcomes. Panel member name: p450-cyp2c19 Compounds with AC50 equal or less than 10 uM are considered active; assay type: functional
Cytochrome P450 2D6 = Cytochrome P450 2D6 (Homo sapiens, UniProt P10635);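 also: CYP2D6 member of a cytochrome P450 panel assay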
SUMO-activating enzyme [1] = biological target: T1, SUMO-activating enzyme (Homo sapiens, UniProt Q9UBT2); assay: blockers of UBC9-mediated SUMO conjugation – biochemical, AlphaScreen, SUMOylation inhibitor project, confirmation (AID 2018); assay type: functional
SUMO-activating enzyme [2] = biological target: T1, SUMO-activating enzyme; assay: blockers of SAE1/SAE2–UBC9 SUMO transfer – biochemical, HTRF, uHTS, primary screen (AID 2006); assay type: protein-complex assay
[3] = biological target: Induced myeloid leukemia cell differentiation protein Mcl-1 (Homo sapiens, UniProt Q07820); assay type: functional
[4] = biological target: T2, Replicative DNA helicase DnaB (Mycobacterium tuberculosis, UniProt P9WMR3); assay: DnaB intein splicing inhibitors, dose response, biochemical, cell-free fluorescence (AID 449749); assay type: functional
T2 sequence (P9WMR3 whole entry): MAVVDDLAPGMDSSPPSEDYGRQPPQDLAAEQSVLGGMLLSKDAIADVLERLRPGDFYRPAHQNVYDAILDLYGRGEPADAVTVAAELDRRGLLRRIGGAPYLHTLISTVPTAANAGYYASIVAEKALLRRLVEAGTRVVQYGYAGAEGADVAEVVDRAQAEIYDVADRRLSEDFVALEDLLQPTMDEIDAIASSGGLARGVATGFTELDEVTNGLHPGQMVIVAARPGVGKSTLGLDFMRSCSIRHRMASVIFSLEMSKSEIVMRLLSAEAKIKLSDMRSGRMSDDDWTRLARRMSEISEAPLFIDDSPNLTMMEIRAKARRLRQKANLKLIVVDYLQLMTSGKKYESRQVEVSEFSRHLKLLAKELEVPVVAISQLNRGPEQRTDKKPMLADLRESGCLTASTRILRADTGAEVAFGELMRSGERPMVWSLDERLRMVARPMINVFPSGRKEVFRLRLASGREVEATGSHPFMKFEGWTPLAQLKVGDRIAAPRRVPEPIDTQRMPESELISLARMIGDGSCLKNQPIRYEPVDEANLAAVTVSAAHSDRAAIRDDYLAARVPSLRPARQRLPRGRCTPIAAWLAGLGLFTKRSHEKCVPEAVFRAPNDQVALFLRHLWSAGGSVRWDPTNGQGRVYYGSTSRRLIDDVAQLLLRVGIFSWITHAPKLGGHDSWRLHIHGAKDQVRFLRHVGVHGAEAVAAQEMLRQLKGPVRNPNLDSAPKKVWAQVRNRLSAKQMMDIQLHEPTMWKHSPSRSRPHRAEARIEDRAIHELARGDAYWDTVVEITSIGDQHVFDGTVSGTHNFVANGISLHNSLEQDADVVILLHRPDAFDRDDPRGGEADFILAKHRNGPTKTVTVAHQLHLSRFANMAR

Protein RecA = biological target: T3, Protein RecA (Mycobacterium tuberculosis, UniProt P9WHJ3); assay: Fluorescence Cell-Free Homogeneous Dose Retest to Identify Inhibitors of RecA-Intein Splicing Activity. [Related pubchem assays (depositor defined):AID2097, AID2223, AID489010, AID492950]; assay type: functional
T3 sequence (P9WHJ3 whole entry): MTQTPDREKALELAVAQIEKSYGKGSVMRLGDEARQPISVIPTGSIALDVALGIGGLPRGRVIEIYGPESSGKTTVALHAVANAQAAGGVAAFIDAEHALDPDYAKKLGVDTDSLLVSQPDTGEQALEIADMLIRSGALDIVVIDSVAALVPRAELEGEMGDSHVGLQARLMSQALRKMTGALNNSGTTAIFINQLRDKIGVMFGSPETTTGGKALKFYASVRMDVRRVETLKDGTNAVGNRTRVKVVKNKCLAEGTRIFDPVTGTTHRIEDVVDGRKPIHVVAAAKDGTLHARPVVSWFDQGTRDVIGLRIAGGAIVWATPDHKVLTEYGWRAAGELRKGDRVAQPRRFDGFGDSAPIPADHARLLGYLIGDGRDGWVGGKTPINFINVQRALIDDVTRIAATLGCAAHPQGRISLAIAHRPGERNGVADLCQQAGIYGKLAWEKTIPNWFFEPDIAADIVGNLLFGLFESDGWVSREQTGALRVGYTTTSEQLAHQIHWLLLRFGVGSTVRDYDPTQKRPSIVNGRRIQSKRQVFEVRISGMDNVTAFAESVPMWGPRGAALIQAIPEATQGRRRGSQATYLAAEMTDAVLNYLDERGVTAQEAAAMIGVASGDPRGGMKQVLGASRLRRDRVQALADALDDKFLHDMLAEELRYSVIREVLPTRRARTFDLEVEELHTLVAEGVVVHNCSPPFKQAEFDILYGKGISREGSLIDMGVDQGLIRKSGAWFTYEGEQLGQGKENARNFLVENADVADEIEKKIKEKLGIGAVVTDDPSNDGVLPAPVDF

[5] = viability loss in THP-1 monocytes – THP-1 cells, cytotoxicity control for Vif-APOBEC3G degradation inhibitor project, dose response (AID 1117359); assay type: functional; details: THP-1
[6] = biological target: DNA dC->dU-editing enzyme APOBEC-3A (Homo sapiens, UniProt P31941); assay: Dose Response confirmation of small molecule APOBEC3A DNA Deaminase Inhibitors via a fluorescence-based single-stranded DNA deaminase assay. [Related pubchem assays (depositor defined):AID493011, AID493024]; assay type: functional
[7] = biological target: T4, DNA dC->dU-editing enzyme APOBEC-3G (Homo sapiens, UniProt Q9HC16); assay type: functional
[8] = A cytotoxicity screen of small molecule inhibitors of the PhoP region in Salmonella typhi identified in the primary screen. [Related pubchem assays: 1850, 1864, 1985 ]; assay type: functional
[9] = biological target: Glucose-6-phosphate 1-dehydrogenase (Homo sapiens, UniProt P11413); assay: inhibition of Homo sapiens G6PD, dose series – biochemical, fluorescence, selectivity assay for P. falciparum G6PD inhibitor project, dose response (AID 504792); assay type: functional
[10] = biological target: T4, DNA dC->dU-editing enzyme APOBEC-3G; assay: Dose Response confirmation of small molecule APOBEC3G DNA Deaminase Inhibitors via a fluorescence-based single-stranded DNA deaminase assay. [Related pubchem assays (depositor defined):AID493012, AID493028]; assay type: functional
[11] = biological target: Glyceraldehyde-3-phosphate dehydrogenase (Homo sapiens, UniProt P04406)
[12] = biological target: Alkaline phosphatase, placental type (Homo sapiens, UniProt P05187); assay: human placental alkaline phosphatase inhibition – biochemical, luminescence, confirmation (AID 1512); assay type: functional
[13] = biological target: T5, Alkaline phosphatase, tissue-nonspecific isozyme (Homo sapiens, UniProt P05186); assay: potency against alkaline phosphatase TNAP – biochemical, luminescent, dose response, SAR follow-up (AID 1056)
T5 sequence (P05186 whole entry): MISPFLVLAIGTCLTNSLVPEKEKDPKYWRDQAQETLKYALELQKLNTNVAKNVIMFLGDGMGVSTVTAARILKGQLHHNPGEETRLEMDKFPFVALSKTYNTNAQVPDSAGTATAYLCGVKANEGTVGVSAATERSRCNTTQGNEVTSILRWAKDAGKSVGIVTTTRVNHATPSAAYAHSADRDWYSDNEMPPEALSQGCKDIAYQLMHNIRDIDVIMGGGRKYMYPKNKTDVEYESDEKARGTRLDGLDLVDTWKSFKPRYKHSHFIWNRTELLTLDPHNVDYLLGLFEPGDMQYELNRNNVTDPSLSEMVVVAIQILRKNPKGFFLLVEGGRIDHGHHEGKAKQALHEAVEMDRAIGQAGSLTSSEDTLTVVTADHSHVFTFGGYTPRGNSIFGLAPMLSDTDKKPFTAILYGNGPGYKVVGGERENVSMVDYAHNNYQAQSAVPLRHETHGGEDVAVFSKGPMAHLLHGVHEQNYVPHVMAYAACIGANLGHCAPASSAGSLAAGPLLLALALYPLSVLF

[14] = biological target: T6, Carboxy-terminal domain RNA polymerase II polypeptide A small phosphatase 1 (Homo sapiens, UniProt Q9GZU7); assay: CTDSP1 inhibitors, concentration-response, biochemical, absorbance readout, ultra-high-throughput screen actives (AID 540297); assay type: functional
T6 sequence (Q9GZU7 whole entry): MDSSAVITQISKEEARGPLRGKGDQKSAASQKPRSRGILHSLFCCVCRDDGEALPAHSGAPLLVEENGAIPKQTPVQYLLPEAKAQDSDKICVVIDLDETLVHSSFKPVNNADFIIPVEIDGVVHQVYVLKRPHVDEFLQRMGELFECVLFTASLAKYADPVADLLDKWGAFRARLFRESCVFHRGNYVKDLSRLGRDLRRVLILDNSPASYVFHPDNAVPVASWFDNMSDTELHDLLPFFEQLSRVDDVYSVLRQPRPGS

[15] = biological target: T7, Heat shock factor protein 1 (Mus musculus, UniProt P38532); assay: enhancement of HSF1-driven luciferase signal – cell-based, NIH3T3, luminescence, dose retest, confirmation (AID 435004); assay type: functional;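 also: stress induced by proteasome inhibitor MG132 added 30 min after compound; luciferase reporter driven by HSF1 response element in NIH3T3 cells; actives raise luminescence as potentiators of the MG132 stress response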
T7 sequence (P38532 whole entry): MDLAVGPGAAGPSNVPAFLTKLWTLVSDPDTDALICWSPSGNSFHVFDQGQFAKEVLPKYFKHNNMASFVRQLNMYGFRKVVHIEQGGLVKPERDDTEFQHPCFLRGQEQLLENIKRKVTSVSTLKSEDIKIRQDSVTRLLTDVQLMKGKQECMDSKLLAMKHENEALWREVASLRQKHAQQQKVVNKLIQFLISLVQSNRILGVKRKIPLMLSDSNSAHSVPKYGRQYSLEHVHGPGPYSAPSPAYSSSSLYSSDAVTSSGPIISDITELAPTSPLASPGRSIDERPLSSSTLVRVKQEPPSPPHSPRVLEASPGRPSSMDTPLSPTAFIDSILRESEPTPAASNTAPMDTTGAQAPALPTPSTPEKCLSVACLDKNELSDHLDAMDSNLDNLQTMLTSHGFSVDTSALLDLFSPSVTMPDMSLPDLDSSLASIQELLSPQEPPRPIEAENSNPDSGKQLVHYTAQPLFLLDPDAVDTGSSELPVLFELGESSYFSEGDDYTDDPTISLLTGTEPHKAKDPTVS

Cytochrome P450 1A2 = biological target: T8, Cytochrome P450 1A2 (Homo sapiens, UniProt P05177);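 also: PubChem cytochrome P450 panel assay, CYP1A2 panel member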
T8 sequence (P05177 whole entry): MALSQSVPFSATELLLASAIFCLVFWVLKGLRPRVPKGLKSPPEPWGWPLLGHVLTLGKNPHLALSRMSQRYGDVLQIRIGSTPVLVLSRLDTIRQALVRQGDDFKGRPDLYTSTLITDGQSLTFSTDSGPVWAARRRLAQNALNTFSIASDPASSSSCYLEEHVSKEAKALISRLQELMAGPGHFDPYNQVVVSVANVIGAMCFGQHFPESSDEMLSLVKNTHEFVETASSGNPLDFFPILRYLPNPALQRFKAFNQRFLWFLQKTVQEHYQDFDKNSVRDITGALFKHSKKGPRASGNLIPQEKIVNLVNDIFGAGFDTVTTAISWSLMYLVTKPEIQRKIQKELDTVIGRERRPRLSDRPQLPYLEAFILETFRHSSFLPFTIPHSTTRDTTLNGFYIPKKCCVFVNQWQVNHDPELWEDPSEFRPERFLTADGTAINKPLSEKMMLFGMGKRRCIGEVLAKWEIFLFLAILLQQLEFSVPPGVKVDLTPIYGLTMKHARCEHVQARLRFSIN

Cytochrome P450 3A4 = Cytochrome P450 3A4 (Homo sapiens, UniProt P08684);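 also: CYP3A4 tested as one member of a cytochrome P450 panel screen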
[16] = biological target: Voltage-gated inwardly rectifying potassium channel KCNH2 (Homo sapiens, UniProt Q12809); details: Potency;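 also: confirmatory quantitative high-throughput screen measuring inhibition of hERG channel activity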

T4 sequence (Q9HC16 whole entry): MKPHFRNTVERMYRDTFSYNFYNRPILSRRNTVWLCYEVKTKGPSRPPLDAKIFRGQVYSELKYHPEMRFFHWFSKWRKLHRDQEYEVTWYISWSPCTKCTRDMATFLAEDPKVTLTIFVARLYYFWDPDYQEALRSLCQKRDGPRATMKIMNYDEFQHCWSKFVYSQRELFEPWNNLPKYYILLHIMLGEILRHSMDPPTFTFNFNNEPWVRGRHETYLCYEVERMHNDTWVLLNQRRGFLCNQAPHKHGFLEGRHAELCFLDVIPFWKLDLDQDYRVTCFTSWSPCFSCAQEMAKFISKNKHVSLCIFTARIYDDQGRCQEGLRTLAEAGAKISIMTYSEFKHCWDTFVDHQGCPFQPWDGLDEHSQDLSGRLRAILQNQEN
Alkaline phosphatase, placental type, sequence (P05187 whole entry): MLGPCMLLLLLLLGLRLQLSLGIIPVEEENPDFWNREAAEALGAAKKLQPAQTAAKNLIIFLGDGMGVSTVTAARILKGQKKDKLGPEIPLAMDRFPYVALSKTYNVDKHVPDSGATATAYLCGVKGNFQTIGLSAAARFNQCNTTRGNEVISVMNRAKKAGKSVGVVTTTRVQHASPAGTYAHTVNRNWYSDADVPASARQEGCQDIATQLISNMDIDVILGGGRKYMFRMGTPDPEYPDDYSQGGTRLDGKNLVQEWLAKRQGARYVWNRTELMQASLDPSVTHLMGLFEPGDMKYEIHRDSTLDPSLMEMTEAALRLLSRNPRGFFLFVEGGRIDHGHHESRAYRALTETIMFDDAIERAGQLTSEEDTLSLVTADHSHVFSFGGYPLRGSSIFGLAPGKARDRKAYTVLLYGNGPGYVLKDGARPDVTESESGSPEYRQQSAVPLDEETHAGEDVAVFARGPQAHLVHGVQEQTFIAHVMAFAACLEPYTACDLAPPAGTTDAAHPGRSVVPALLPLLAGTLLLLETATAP
T1 sequence (Q9UBE0 whole entry): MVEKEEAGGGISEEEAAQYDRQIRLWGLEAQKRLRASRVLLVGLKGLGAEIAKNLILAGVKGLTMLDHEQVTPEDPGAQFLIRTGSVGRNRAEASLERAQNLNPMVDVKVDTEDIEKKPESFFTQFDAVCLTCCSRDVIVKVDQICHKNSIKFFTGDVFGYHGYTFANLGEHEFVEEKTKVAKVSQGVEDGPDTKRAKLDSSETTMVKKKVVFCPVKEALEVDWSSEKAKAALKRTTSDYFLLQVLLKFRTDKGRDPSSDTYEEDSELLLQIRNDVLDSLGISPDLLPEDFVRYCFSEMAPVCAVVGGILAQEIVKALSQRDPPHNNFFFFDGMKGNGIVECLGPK
T1 sequence (Q9UBT2 whole entry): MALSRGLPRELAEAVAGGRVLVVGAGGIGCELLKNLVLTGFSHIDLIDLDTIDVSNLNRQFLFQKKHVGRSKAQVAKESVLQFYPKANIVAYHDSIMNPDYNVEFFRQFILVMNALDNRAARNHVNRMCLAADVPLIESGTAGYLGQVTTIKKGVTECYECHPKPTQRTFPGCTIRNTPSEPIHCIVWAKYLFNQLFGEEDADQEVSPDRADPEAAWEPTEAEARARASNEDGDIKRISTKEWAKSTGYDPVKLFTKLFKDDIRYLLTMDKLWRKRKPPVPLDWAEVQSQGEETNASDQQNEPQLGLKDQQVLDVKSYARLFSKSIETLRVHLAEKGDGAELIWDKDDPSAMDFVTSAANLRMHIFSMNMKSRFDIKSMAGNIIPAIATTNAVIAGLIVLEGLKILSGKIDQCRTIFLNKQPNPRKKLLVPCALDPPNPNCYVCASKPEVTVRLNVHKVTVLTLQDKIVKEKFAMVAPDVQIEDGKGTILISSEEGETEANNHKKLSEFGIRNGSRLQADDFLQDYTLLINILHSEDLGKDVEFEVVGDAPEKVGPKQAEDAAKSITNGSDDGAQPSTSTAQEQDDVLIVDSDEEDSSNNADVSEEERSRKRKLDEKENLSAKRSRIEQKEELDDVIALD
DNA dC->dU-editing enzyme APOBEC-3A, sequence (P31941 whole entry): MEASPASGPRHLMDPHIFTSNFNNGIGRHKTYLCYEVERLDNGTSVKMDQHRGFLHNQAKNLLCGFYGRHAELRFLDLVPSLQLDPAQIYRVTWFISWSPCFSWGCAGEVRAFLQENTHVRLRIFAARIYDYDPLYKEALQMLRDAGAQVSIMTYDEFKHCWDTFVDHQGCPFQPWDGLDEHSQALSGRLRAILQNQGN
Glyceraldehyde-3-phosphate dehydrogenase, sequence (P04406 whole entry): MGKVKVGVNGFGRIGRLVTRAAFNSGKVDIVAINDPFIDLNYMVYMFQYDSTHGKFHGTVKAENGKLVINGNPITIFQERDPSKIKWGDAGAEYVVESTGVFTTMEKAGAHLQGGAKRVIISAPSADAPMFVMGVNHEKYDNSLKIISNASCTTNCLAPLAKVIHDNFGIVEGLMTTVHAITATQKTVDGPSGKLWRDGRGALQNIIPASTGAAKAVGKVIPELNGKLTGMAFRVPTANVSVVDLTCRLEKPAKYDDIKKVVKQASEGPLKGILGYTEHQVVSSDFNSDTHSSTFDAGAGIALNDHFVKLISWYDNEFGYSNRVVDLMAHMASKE
Cytochrome P450 2D6, sequence (P10635 whole entry): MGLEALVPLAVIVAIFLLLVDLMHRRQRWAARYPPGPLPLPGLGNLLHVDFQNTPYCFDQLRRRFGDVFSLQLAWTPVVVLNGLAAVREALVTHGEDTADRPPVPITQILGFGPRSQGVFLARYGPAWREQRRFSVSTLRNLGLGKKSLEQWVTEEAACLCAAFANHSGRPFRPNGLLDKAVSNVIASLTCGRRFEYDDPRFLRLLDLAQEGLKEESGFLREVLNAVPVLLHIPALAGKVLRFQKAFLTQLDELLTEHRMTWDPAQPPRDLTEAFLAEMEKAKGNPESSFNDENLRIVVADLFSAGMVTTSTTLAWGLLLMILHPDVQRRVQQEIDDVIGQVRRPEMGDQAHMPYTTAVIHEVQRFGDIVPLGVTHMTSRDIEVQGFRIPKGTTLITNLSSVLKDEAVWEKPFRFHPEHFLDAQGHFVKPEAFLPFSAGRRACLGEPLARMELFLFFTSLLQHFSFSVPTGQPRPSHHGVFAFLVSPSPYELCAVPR
Cytochrome P450 2C19, sequence (P33261 whole entry): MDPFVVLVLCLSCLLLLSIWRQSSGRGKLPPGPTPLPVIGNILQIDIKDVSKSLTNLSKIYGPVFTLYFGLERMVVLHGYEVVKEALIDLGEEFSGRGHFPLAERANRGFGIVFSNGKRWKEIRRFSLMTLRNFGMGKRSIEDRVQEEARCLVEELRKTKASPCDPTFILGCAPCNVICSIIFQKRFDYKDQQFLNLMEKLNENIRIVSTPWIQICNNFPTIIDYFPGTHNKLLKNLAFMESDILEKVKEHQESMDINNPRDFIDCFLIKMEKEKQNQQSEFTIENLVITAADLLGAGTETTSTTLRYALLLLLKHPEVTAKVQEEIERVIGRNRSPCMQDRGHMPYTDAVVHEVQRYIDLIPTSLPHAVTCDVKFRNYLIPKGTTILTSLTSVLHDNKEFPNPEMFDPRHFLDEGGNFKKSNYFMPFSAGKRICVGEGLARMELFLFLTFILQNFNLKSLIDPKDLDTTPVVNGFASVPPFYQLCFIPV
Glucose-6-phosphate 1-dehydrogenase, sequence (P11413 whole entry): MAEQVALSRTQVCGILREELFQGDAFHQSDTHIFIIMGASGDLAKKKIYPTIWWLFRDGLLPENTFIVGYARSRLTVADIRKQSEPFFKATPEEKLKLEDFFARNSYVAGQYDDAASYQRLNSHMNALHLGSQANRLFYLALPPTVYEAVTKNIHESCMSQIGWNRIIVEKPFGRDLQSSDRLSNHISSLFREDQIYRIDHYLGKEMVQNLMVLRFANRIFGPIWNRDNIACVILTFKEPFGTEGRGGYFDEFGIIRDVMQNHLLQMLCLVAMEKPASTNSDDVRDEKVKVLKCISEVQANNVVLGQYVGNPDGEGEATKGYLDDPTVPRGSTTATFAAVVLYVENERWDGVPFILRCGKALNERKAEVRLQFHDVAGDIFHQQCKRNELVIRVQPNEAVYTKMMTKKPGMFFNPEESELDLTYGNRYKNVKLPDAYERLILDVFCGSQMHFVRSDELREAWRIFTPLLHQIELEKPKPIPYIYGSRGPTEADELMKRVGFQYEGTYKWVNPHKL
Cytochrome P450 3A4, sequence (P08684 whole entry): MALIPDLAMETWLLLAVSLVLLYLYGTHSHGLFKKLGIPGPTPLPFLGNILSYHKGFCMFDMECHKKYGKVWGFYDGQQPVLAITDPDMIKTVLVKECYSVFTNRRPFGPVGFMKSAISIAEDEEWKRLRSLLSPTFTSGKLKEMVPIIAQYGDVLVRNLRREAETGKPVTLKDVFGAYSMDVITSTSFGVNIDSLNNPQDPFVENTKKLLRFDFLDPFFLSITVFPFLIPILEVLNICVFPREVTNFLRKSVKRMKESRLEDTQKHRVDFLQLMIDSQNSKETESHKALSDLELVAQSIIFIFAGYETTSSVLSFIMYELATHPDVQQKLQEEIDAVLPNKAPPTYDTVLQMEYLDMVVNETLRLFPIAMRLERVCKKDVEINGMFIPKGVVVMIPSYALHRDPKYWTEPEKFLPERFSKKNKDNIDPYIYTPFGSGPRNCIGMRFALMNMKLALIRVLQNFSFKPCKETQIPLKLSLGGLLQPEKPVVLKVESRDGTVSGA
Induced myeloid leukemia cell differentiation protein Mcl-1, sequence (Q07820 whole entry): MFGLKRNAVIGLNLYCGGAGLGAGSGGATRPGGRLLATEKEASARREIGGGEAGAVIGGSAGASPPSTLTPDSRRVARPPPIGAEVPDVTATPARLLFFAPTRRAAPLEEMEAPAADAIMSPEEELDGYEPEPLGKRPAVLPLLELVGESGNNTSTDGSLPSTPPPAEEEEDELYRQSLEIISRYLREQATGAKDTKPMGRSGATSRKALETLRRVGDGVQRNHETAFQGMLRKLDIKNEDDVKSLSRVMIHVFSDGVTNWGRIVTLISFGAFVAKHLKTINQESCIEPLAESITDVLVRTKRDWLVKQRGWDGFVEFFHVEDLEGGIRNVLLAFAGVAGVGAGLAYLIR

SMILES: Cc1ccc(C(=O)N/N=C/c2ccc(S(=O)(=O)[O-])o2)c(Cl)c1.[Na+]
- AC50 (Cytochrome P450 2C19): inconclusive
- AC50 (Cytochrome P450 2D6): inconclusive

SMILES: COc1ccc(C)c2sc(NC(=O)c3cccc(N4C(=O)CCC4=O)c3)nc12
- IC50 (SUMO-activating enzyme [1]): 9.99 µM (active)
- IC50 (SUMO-activating enzyme [2]): 6.1 µM (active)

SMILES: CCc1ccc(S(=O)(=O)/N=C2\C=CC(=O)c3ccccc32)cc1
- IC50 (SUMO-activating enzyme [1]): 4.93 µM (active)
- IC50 (SUMO-activating enzyme [2]): 35.4 µM (active)
- IC50 [3]: 3.11 µM (active)
- AC50 [4]: 1.15 µM (active)
- EC50 (Protein RecA): 0.643 µM (active)
- CC50 [5]: 23.7 µM (active)

SMILES: CCc1nc(CNC(=O)c2cc(OC)c(OC)c(OC)c2)no1
- IC50 [6]: 2.24 µM (active)
- IC50 [7]: 3.11 µM (active)

SMILES: CC(=O)Nc1ccc(S(=O)(=O)NNc2cccc(C)c2)cc1
- EC50 [8]: > 50 µM (active)
- IC50 [9]: > 80 µM (inactive)
- IC50 [10]: 35.9 µM (active)

SMILES: Cc1ccc(C)c(NC(=O)Cn2cc(C(=O)C3CC3)c3ccccc32)c1
- IC50 [6]: 6.88 µM (active)
- IC50 [7]: 6.11 µM (active)

SMILES: O=C1CC(c2ccccc2)Cc2[nH]ncc21 (stereo not drawn)
- IC50 [11]: > 100 µM (not active)
- IC50 [12]: > 100 µM (inactive)
- IC50 [13]: > 100 µM (inactive)

SMILES: CC(C)(C)OC(=O)NC1(C(Cl)(Cl)Cl)Oc2ccccc2O1
- IC50 [12]: > 100 µM (inactive)
- IC50 [13]: > 100 µM (inactive)

SMILES: Cc1cc(Br)ccc1NC(=O)CN(C)C(=O)Cn1c(=O)cnc2ccccc21
- IC50 [6]: 5.76 µM (active)
- IC50 [7]: 6.85 µM (active)
- IC50 [14]: 7.57 µM (active)

SMILES: COC(=O)c1cc(-c2ccc(Cl)cc2Cl)n[nH]1
- IC50 [11]: > 100 µM (not active)
- IC50 [12]: > 100 µM (inactive)
- IC50 [13]: 264 nM (active) and 315 nM (active)

SMILES: COc1cc(-c2nnc(SC/C=C/c3ccccc3)n2N)cc(OC)c1OC
- EC50 [15]: > 260 µM (inconclusive)
- AC50 (Cytochrome P450 1A2): 14.1 µM (inconclusive)
- AC50 (Cytochrome P450 3A4): 31.6 µM (inconclusive)
- AC50 (Cytochrome P450 2D6): inconclusive

SMILES: c1ccc(SCCSc2ccccc2)cc1
- AC50 [16]: 28.2 µM (inconclusive)
